One series concerns the target T1, BCRP (Homo sapiens, UniProt Q9UNQ0).
T1 construct: host or cells: MDCK (BCRP-MDCK)
T1 sequence (Q9UNQ0 1-655): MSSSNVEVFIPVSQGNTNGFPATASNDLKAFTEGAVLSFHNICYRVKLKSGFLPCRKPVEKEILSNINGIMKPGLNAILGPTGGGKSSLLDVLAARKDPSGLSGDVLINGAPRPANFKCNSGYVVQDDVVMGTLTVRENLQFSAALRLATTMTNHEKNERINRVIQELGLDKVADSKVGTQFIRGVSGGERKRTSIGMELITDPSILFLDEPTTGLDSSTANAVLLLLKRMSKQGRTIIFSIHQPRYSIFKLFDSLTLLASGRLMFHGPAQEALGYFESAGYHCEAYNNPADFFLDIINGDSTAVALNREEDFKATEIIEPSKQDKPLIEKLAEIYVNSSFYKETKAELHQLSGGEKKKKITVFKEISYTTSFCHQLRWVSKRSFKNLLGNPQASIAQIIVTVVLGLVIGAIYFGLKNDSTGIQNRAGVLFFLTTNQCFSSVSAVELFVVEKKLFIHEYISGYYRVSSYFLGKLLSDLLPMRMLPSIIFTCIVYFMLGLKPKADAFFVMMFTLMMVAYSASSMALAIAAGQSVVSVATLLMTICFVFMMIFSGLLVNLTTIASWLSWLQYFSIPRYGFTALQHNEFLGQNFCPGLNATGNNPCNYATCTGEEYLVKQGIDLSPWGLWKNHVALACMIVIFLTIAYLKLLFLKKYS
Nature of the series: Inhibition of BCRP-mediated efflux transport in BCRP-MDCK cells. The class given is in vitro ADME. As for the experimental part: A preincubation with EBO or known inhibitor was performed on both sides to preload the cells. After 30 min, the preincubation solution was aspirated. Aliquots of fresh dosing solution with or without EBO or known inhibitor (0.55 mL for AP-to-BL, 1.55 mL for BL-to-AP) were added to the donor compartment, and HBSSg_7.4 with or without EBO or known inhibitor (1.5 mL for AP-to-BL, 0.5 mL for BL-to-AP) were added to the receiver compartment. Receiver samples (200 µL) and donor samples (50 µL) were taken at preselected time points.
Cell monolayer integrity was examined using lucifer yellow (excitation 450 nm and emission 538 nm). The concentrations of the probe substrate in the donor and receiver samples, as well as EBO in dosing solutions, were determined by LC-MS/MS.

For another series, the target named is T2, MATE2K (Homo sapiens, UniProt Q86VL8).
T2 construct: host or cells: MDCK
Nature of the series: Transporter inhibition. The class given is in vitro ADME. The conditions noted are these: read-out: as an Inhibitor, IC50.

Another series deals with human hepatocytes. The series can be described thus: Cytotoxicity in hepatocytes. The conditions noted are these: EBO at 100 µM, M3 at 250 µM. As for the experimental part:
(§1) The induction potential of EBO and M3 on CYP1A2, CYP2B6, and 3A4 was evaluated by incubating the test articles with plated human hepatocytes from 3 individual donors (GKJ, ZEY, WKF) in triplicate according to WuXi AppTec (Cranbury, NJ, USA) SOP.

Another series concerns CYP1A2. Nature of the series: CYP mRNA induction in plated human hepatocytes (qPCR). The following applies: for Apparent Emax: CYP1A2 mRNA, EBO 0.3–100 µM, M3 1–250 µM. As for the experimental part: as §1
(§2) At the end of incubation, the RNA of human hepatocytes was isolated and the mRNA expression levels of CYP 1A2, 2B6, and 3A4 were evaluated by using real-time polymerase chain reaction (qPCR) after being reverse-transcribed (RT) to cDNA following manufacturer’s instruction (thermos Fisher Scientific (Waltham, MA, USA). On the last dosing day with EBO or M3, incubation samples were extracted in triplicate by the addition of ice-cold quench solutions at 0, 0.5, 1, 2, 4, 6, and 24 h after dosing and the extracted samples were analyzed using LC-MS/MS to determine the EBO or M3 concentration in each sample.

Another series concerns CYP2B6. The series is described as above. The conditions noted are these: for Apparent Emax: CYP2B6 mRNA, EBO 0.3–100 µM, M3 1–250 µM. As for the experimental part:
as §1, §2

The next series relates to CYP3A4. The description is as above. The conditions noted are these: for Apparent Emax: EBO 0.3–100 µM, M3 1–250 µM; for EC50 at 2 days: human. As for the experimental part:
as §1, §2

Setting [1] is: at 100 µM, EBO 2 out of 3 donors, M3 1 out of 3 donors.

T2 sequence (Q86VL8 1-566 isoform Q86VL8-3): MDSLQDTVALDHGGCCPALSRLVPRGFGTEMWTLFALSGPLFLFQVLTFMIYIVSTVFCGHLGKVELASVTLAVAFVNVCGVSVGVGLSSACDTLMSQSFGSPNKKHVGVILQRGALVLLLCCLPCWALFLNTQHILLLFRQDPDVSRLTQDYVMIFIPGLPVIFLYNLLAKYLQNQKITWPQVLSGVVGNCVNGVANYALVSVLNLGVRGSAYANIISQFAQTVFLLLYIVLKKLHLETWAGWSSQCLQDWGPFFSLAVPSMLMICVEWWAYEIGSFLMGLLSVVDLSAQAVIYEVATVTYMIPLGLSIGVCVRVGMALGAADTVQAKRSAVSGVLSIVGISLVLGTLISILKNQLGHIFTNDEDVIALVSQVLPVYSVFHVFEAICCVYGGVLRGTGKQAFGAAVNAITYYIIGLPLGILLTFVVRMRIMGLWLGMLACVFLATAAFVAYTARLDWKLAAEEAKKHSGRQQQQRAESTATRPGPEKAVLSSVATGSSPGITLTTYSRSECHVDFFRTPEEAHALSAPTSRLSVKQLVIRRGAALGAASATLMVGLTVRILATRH

The inhibition is the change of the read-out against control, counted positive when it falls. One may read the IC50 as the point on the concentration scale where inhibition reaches its midpoint. The term EC50 denotes the concentration giving half of the maximal effect. `NC[C@H]1OB(O)c2c(OCCCO)cccc21` [EBO, Epetraborole] registered an inhibition at 300 µM on BCRP (human, BCRP-MDCK cells, pH 7.4, at 300 μM) of 13%. The same compound returned an inhibition at 1000 µM on BCRP (human, BCRP-MDCK cells, pH 7.4, at 1000 µM) of 27%. The IC50 at MATE2K is over 100 µM. The “Cytotoxicity (>20%)” value in the series on human hepatocytes is listed as “did not induce cytotoxicity (>20%)”. Further, the “Apparent Emax” value in the series with CYP1A2 (donor one) is under 2 Fold; in the series with CYP1A2 (donor three), under 2 Fold; in the series on CYP1A2 (donor two), under 2 Fold; in the series with CYP2B6 (donor one), under 2 Fold; with CYP2B6 (donor three) it was under 2 Fold; with CYP2B6 (donor two), over 2.18 Fold. The “Apparent Emax” value with CYP3A4 (CYP3A4 mRNA, donor one) was over 2.98 Fold; in the series on CYP3A4 (CYP3A4 mRNA, donor three), under 2 Fold; with CYP3A4 (CYP3A4 mRNA, donor two) it was over 2.93 Fold. The “Inducer of CYP1A2 mRNA (in words)” value with CYP1A2 (hepatocytes) was “not an inducer”. Further, the “CYP2B6 mRNA expression induction” value in the series with CYP2B6 (at 100 µM, 1 out of 3 donors) is listed as 2.18 fold. Besides, the “Inducer of CYP2B6 (in words)” value in the series with CYP2B6 (hepatocytes) is given as “weak inducer”. For the same compound, the 50% effective concentration (EC50) at 2 days with CYP2B6 (human, plated human hepatocytes) is over 100 µM; in the series on CYP3A4 (plated human hepatocytes), over 100 µM. The “CYP3A4 mRNA expression induction” value in the series on CYP3A4 (setting [1]) is ~ 3 fold. In addition, the “Inducer of CYP3A4 (in words)” value in the series with CYP3A4 (hepatocytes) was “weak inducer”. Also, the EC50 in the series on CYP3A4 (read-out: Apparent EC50, CYP3A4 mRNA, donor one) was over 100 µM.

With `NC[C@H]1OB(O)c2c(OCCC(=O)O)cccc21` [M3], the inhibition at 500 µM against BCRP (human, BCRP-MDCK cells, pH 7.4, at 500 μM) is 44%. In addition, the IC50 on BCRP (read-out: as an Inhibitor, IC50) is over 500 µM; on MATE2K, over 250 µM. For the same compound, the “Cytotoxicity (>20%)” value in the series with human hepatocytes was “did not induce cytotoxicity (>20%)”. For the same compound, the “Apparent Emax” value in the series with CYP1A2 (donor one), in the series on CYP1A2 (donor three), in the series on CYP1A2 (donor two), in the series on CYP2B6 (donor one), in the series on CYP2B6 (donor three) and with CYP2B6 (donor two) was under 2 Fold in each case. In addition, the “Apparent Emax” value in the series on CYP3A4 (CYP3A4 mRNA, donor one) was 2.16 Fold; in the series on CYP3A4 (CYP3A4 mRNA, donor three), under 2 Fold; with CYP3A4 (CYP3A4 mRNA, donor two), under 2 Fold. Moreover, the “CYP3A4 mRNA expression induction” value stood at 2.19 fold in the series on CYP3A4 (setting [1]) and 2.13 fold in the series with CYP3A4 (at 250 µM, 1 out of 3 donors). For the same compound, in the series with CYP3A4, the half-maximal effective concentration (EC50) at 2 days came to 32.4 µM.

These data come from publication PMC10818931, “In Vitro Evaluation of Drug–Drug Interaction Potential of Epetraborole, a Novel Bacterial Leucyl-tRNA Synthetase Inhibitor” (Pharmaceuticals, 2024).
